Measured values as given in patent US20120324604A1, “PESTICIDAL MIXTURES CONTAINING ISOXAZOLINE DERIVATIVES AND A FUNGICIDE” (priority 2010, published 2012).
Several values for one entry are separate records, joined by “and”; a condition that tells them apart may be missing. Equal values may be shown once.

What was measured:
Type in all cases: cell-based
[1] = system: Fusarium culmorum; test: Fusarium culmorum (Root Rot) growth inhibition, microtiter plate, photometric
Procedure: Fusarium culmorum (Root Rot):
(§1) Conidia of the fungus from cryogenic storage were directly mixed into nutrient broth (potato dextrose broth). After placing a (DMSO) solution of the test compounds into a microtiter plate (96-well format) the nutrient broth containing the fungal spores was added.

[2] = system: Septoria tritici; test: Septoria tritici (Leaf Blotch) growth inhibition, microtiter plate, photometric; conditions: for AVERAGE DEAD IN %: alone; for AVERAGE DEAD IN % COMPOUND IV: COMPOUND IV alone
Procedure: Septoria tritici (Leaf Blotch):
as §1

[3] = system: Mycosphaerella arachidis (syn. Cercospora arachidicola); test: Mycosphaerella arachidis (Brown Leaf Spot of Groundnut) growth inhibition, microtiter plate, photometric; conditions: alone
Procedure: Mycosphaerella arachidis (syn. Cercospora arachidicola), Brown Leaf Spot of Groundnut (Peanut):
as §1

[4] = system: Gaeumannomyces graminis; test: Gaeumannomyces graminis growth inhibition, microtiter plate, photometric
Procedure: Mycelial fragments of the fungus from cryogenic storage were directly mixed into nutrient broth (potato dextrose broth). After placing a (DMSO) solution of the test compounds into a microliter plate (96-well format) the nutrient broth containing the fungal spores was added.

[5] = system: Botrvtis cinerea; test: Botrvtis cinerea (Gray Mould) growth inhibition, microtiter plate, photometric; conditions: alone
Procedure: Botrvtis cinerea (Gray Mould):
as §1

With `COC(c1ccc(Cl)cc1Cl)C(C)NC(=O)c1cn(C)nc1C(F)F` (stereo not drawn) [COMPOUND IV] the “AVERAGE DEAD IN %” value ([1]; alone, 1 PPM AI) was 20%, the “AVERAGE DEAD IN %” value ([1]; alone, 2 PPM AI) was 50% and the “AVERAGE DEAD IN %” value ([1]; single compound, 0.5 PPM AI, 48 hrs, 24° C.) was 0%. The “AVERAGE DEAD IN %” value ([1]; single compound, 1 PPM AI, 48 hrs, 24° C.) was 20%, the “AVERAGE DEAD IN %” value ([1]; single compound, 2 PPM AI, 48 hrs, 24° C.) was 50% and the “AVERAGE DEAD IN %” value ([2]; 0.125 ppm AI) was 20%. For the same compound, the “AVERAGE DEAD IN %” value ([2]; 0.25 ppm AI) was 90%, the “AVERAGE DEAD IN % COMPOUND IV” value ([2]; 0.25 ppm AI) was 70% and 90% and the “AVERAGE DEAD IN % COMPOUND IV” value ([2]; 0.5 ppm AI) was 90% and 100%. For the same compound, the “AVERAGE DEAD IN %” value ([3]; 0.0625 ppm AI) was 20%, the “AVERAGE DEAD IN %” value ([3]; 0.125 ppm AI) was 90% and the “AVERAGE DEAD IN %” value ([3]; 0.125 PPM AI) was 90%. For the same compound, the “AVERAGE DEAD IN %” value ([4]; single compound at 0.25 ppm AI) was 0%, the “AVERAGE DEAD IN %” value ([4]; single compound at 0.5 ppm AI) was 0% and the “AVERAGE DEAD IN %” value ([4]; single compound at 1 ppm AI) was 0%. For the same compound, the “AVERAGE DEAD IN %” value ([5]; 0.03125 ppm AI) was 0%, the “AVERAGE DEAD IN %” value ([5]; 0.0625 ppm AI) was 20% and the “AVERAGE DEAD IN %” value ([5]; 0.125 ppm AI) was 20%. The “AVERAGE DEAD IN %” value ([5]; 0.25 ppm AI) was 50%, the “AVERAGE DEAD IN %” value ([5]; 0.5 ppm AI) was 70% and the “AVERAGE DEAD IN %” value ([5]; 1 ppm AI) was 90%.
